These molecules were tested on ring stage parasites (assay: Parasite growth potency assay, 72 hours, LDH readout). Settings: 72 h.
Type: cell-based
In short: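 Parasite growth was quantified by LDH assay after a −80 °C freeze-thaw. Before that, compound was incubated for 72 h at 37 °C under humidified gas with ring-stage cultures adjusted to 0.7% parasitemia and 2% haematocrit in serum- and albumax-supplemented RPMI-Hepes.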

In order of rising EC50:
1. CCC1(CC)CC(=O)N([C@H](c2cccc(OS(=O)(=O)F)c2)c2cccc(C(=O)N[C@H]3CCOc4ccccc43)c2)C(=N)N1 [Example 149A, [1-[[3-[[(4S)-chroman-4-yl]carbamoyl]phenyl]-(3-fluorosulfonyloxyphenyl)methyl]-4,4-diethyl-6-oxo-hexahydropyrimidin-2-ylidene]ammonium; 2,2,2-trifluoroacetate]  1.5 nM
2. CCC1(CC)CC(=O)N([C@H](c2ccc(OS(=O)(=O)F)cc2)c2cccc(C(=O)N[C@H]3CCOc4ccccc43)c2)C(=N)N1 [Example 150, [1-[[3-[[(4S)-chroman-4-yl]carbamoyl]phenyl]-(4-fluorosulfonyloxyphenyl)methyl]-4,4-diethyl-6-oxo-hexahydropyrimidin-2-ylidene]ammonium; 2,2,2-trifluoroacetate]  2.8 nM
3. CCC1(CC)CC(=O)N([C@@H](c2cccc(OS(=O)(=O)F)c2)c2cccc(C(=O)N[C@H]3CCOc4ccccc43)c2)C(=N)N1 [Example 149B, [1-[[3-[[(4S)-chroman-4-yl]carbamoyl]phenyl]-(3-fluorosulfonyloxyphenyl)methyl]-4,4-diethyl-6-oxo-hexahydropyrimidin-2-ylidene]ammonium; 2,2,2-trifluoroacetate]  57.6 nM

Same assay, conditions: 72 h, parasite growth measured by LDH assay after 72 hours at 37° C.; 0.7% rings, 2% haematocrit; read-out: EC50

In order of rising EC50:
1. CCC1(CC)CC(=O)N([C@H](CC(C)(C)O)c2cccc(C(=O)N[C@H]3CC(C)(C)Oc4ccccc43)c2)C(=N)N1 [Example 145, 3-[1-(4,4-diethyl-2-imino-6-oxo-hexahydropyrimidin-1-yl)-3-hydroxy-3-methyl-butyl]-N-[(4S)-2,2-dimethylchroman-4-yl]benzamide]  0.7 nM
2. CCC1(CC)CC(=O)N(Cc2cc(F)cc(C(=O)N[C@@H]3c4ccccc4OC(C)(C)[C@H]3O)c2)C(=N)N1 [Example 141, [4,4-diethyl-1-[[3-fluoro-5-[[(3S,4R)-3-hydroxy-2,2-dimethyl-chroman-4-yl]carbamoyl]phenyl]methyl]-6-oxo-hexahydropyrimidin-2-ylidene]ammonium; 2,2,2-trifluoroacetate]  0.8 nM
3. CCC1(CC)CC(=O)N([C@H](CCN2CCOCC2)c2cccc(C(=O)N[C@H]3CC(C)(C)Oc4ccccc43)c2)C(=N)N1 [Example 135, [1-[1-[3-[[(4S)-2,2-dimethylchroman-4-yl]carbamoyl]phenyl]-3-morpholin-4-ium-4-yl-propyl]-4,4-diethyl-6-oxo-hexahydropyrimidin-2-ylidene]ammonium; 2,2,2-trifluoroacetate]  1 nM
4. CCC1(CC)CC(=O)N([C@H](CCOC)c2cccc(C(=O)NC3c4ccccc4OC(C(F)(F)F)C3O)c2)C(=N)N1 (stereo partly drawn) [Example 151, [4,4-diethyl-1-[(1R)-1-[3-[[3-hydroxy-2-(trifluoromethyl)chroman-4-yl]carbamoyl]phenyl]-3-methoxy-propyl]-6-oxo-hexahydropyrimidin-2-ylidene]ammonium; 2,2,2-trifluoroacetate]  1.1 nM
5. CCC1(CC)CC(=O)N([C@H](CCN2CCOCC2)c2cccc(C(=O)N[C@H]3C[C@H](C(F)(F)F)Oc4ccccc43)c2)C(=N)N1 [Example 136, [4,4-diethyl-1-[3-morpholin-4-ium-4-yl-1-[3-[[(2R,4S)-2-(trifluoromethyl)chroman-4-yl]carbamoyl]phenyl]propyl]-6-oxo-hexahydropyrimidin-2-ylidene]ammonium; 2,2,2-trifluoroacetate]  1.3 nM
6. CCC1(CC)CC(=O)N([C@H](COCCOC)c2cccc(C(=O)N[C@@H]3c4ccccc4OC(C)(C)[C@H]3O)c2)C(=N)N1 [Example 139, [4,4-diethyl-1-[(1S)-1-[3-[[(3S,4R)-3-hydroxy-2,2-dimethyl-chroman-4-yl]carbamoyl]phenyl]-2-(2-methoxyethoxy)ethyl]-6-oxo-hexahydropyrimidin-2-ylidene]ammonium; 2,2,2-trifluoroacetate]  1.5 nM
7. CCC1(CC)CC(=O)N([C@H](CCOC(F)F)c2cccc(C(=O)N[C@@H]3c4ccccc4C[C@H]3O)c2)C(=N)N1 [Example 157, [1-[3-(difluoromethoxy)-1-[3-[[(1R,2R)-2-hydroxyindan-1-yl]carbamoyl]phenyl]propyl]-4,4-diethyl-6-oxo-hexahydropyrimidin-2-ylidene]ammonium; 2,2,2-trifluoroacetate]  1.8 nM
8. CCC1(CC)CC(=O)N([C@H](CCOC)c2cccc(C(=O)N[C@@H]3c4ccccc4OC[C@H]3O)c2)C(=N)N1 [Example 152B, [4,4-diethyl-1-[(1R)-1-[3-[[(3S,4R)-3-hydroxychroman-4-yl]carbamoyl]phenyl]-3-methoxy-propyl]-6-oxo-hexahydropyrimidin-2-ylidene]ammonium; 2,2,2-trifluoroacetate]  2 nM
9. CCC1(CC)CC(=O)N([C@H](CCOC(F)F)c2cccc(C(=O)N[C@@H]3c4ccccc4C[C@@]3(C)O)c2)C(=N)N1 [Example 158A, 3-[1-(4,4-diethyl-2-imino-6-oxo-hexahydropyrimidin-1-yl)-3-(difluoromethoxy)propyl]-N-[(1R,2R)-2-hydroxy-2-methyl-indan-1-yl]benzamide]  2.6 nM
10. CCC1(CC)CC(=O)N([C@H](CCOC)c2cc(F)cc(C(=O)N[C@@H]3c4ccccc4C[C@H]3O)c2)C(=N)N1 [Example 138, [4,4-diethyl-1-[1-[3-fluoro-5-[[(1R,2R)-2-hydroxyindan-1-yl]carbamoyl]phenyl]-3-methoxy-propyl]-6-oxo-hexahydropyrimidin-2-ylidene]ammonium; 2,2,2-trifluoroacetate]  2.7 nM
11. CCC1(CC)CC(=O)N([C@H](COCCOC)c2cccc(C(=O)N[C@@H]3c4ccccc4C[C@H]3O)c2)C(=N)N1 [Example 140, [4,4-diethyl-1-[(1S)-1-[3-[[(1R,2R)-2-hydroxyindan-1-yl]carbamoyl]phenyl]-2-(2-methoxyethoxy)ethyl]-6-oxo-hexahydropyrimidin-2-ylidene]ammonium; 2,2,2-trifluoroacetate]  3.2 nM
12. CCC1(CC)CC(=O)N([C@H](COCCOC)c2cccc(C(=O)NC3c4ccccc4CC3(C)O)c2)C(=N)N1 (stereo partly drawn) [Example 146A, 3-[(1S)-1-(4,4-diethyl-2-imino-6-oxo-hexahydropyrimidin-1-yl)-2-(2-methoxyethoxy)ethyl]-N-(2-hydroxy-2-methyl-indan-1-yl)benzamide]  5.3 nM
13. CCC1(CC)CC(=O)N([C@H](CCS(C)(=O)=O)c2cccc(C(=O)N[C@H]3CC(C)(C)Oc4ccccc43)c2)C(=N)N1 [Example 156, [1-[1-[3-[[(4S)-2,2-dimethylchroman-4-yl]carbamoyl]phenyl]-3-methylsulfonyl-propyl]-4,4-diethyl-6-oxo-hexahydropyrimidin-2-ylidene]ammonium; 2,2,2-trifluoroacetate]  5.7 nM
14. CCC1(CC)CC(=O)N(Cc2cc(C(=O)N[C@H]3C[C@H](C(F)(F)F)Oc4ccccc43)ccn2)C(=N)N1 [Example 134, [4,4-diethyl-6-oxo-1-[[4-[[(2R,4S)-2-(trifluoromethyl)chroman-4-yl]carbamoyl]pyridin-1-ium-2-yl]methyl]hexahydropyrimidin-2-ylidene]ammonium; 2,2,2-trifluoroacetate]  8.6 nM
15. CCC1(CC)CC(=O)N([C@H](CCOC)c2cccc(C(=O)N[C@@H]3c4ccccc4OC[C@@H]3O)c2)C(=N)N1 [Example 152A, [4,4-diethyl-1-[(1R)-1-[3-[[(3R,4R)-3-hydroxychroman-4-yl]carbamoyl]phenyl]-3-methoxy-propyl]-6-oxo-hexahydropyrimidin-2-ylidene]ammonium; 2,2,2-trifluoroacetate]  8.8 nM
16. CCC1(CC)CC(=O)N([C@H](CCS(C)(=O)=O)c2cccc(C(=O)N[C@@H]3c4ccccc4OC(C)(C)[C@H]3O)c2)C(=N)N1 [Example 155, [4,4-diethyl-1-[1-[3-[[(3S,4R)-3-hydroxy-2,2-dimethyl-chroman-4-yl]carbamoyl]phenyl]-3-methylsulfonyl-propyl]-6-oxo-hexahydropyrimidin-2-ylidene]ammonium; 2,2,2-trifluoroacetate]  17.2 nM
17. CCC1(CC)CC(=O)N([C@H](CCS(C)(=O)=O)c2cccc(C(=O)N[C@@H]3c4ccccc4C[C@@]3(C)O)c2)C(=N)N1 [Example 154A, 3-[1-(4,4-diethyl-2-imino-6-oxo-hexahydropyrimidin-1-yl)-3-methylsulfonyl-propyl]-N-[(1R,2R)-2-hydroxy-2-methyl-indan-1-yl]benzamide]  54 nM
18. CCC1(CC)CC(=O)N([C@H](CCS(C)(=O)=O)c2cccc(C(=O)N[C@@H]3c4ccccc4C[C@H]3O)c2)C(=N)N1 [Example 153, [4,4-diethyl-1-[1-[3-[[(1R,2R)-2-hydroxyindan-1-yl]carbamoyl]phenyl]-3-methylsulfonyl-propyl]-6-oxo-hexahydropyrimidin-2-ylidene]ammonium; 2,2,2-trifluoroacetate]  77.8 nM

Same assay, conditions: parasite growth measured by LDH assay after 72 hours at 37° C.; 0.7% rings, 2% haematocrit; read-out: EC50

In order of falling EC50:
1. CCC1(CC)CC(=O)N([C@H](CCS(C)(=O)=O)c2cccc(C(=O)N[C@@H]3c4ccccc4C[C@]3(C)O)c2)C(=N)N1 [Example 154B, 3-[1-(4,4-diethyl-2-imino-6-oxo-hexahydropyrimidin-1-yl)-3-methylsulfonyl-propyl]-N-[(1R,2S)-2-hydroxy-2-methyl-indan-1-yl]benzamide]  69 nM
2. CCC1(CC)CC(=O)N([C@H](COCCOC)c2cccc(C(=O)NC3c4ccccc4CC3(C)O)c2)C(=N)N1 (stereo partly drawn) [Example 146B, 3-[(1S)-1-(4,4-diethyl-2-imino-6-oxo-hexahydropyrimidin-1-yl)-2-(2-methoxyethoxy)ethyl]-N-(2-hydroxy-2-methyl-indan-1-yl)benzamide]  6.4 nM
3. CCC1(CC)CC(=O)N([C@H](CCOC(F)F)c2cccc(C(=O)N[C@@H]3c4ccccc4C[C@]3(C)O)c2)C(=N)N1 [Example 158B, 3-[1-(4,4-diethyl-2-imino-6-oxo-hexahydropyrimidin-1-yl)-3-(difluoromethoxy)propyl]-N-[(1R,2S)-2-hydroxy-2-methyl-indan-1-yl]benzamide]  2.4 nM
